Measurements taken from patent EP1059033A1, “INDUSTRIAL ANTIBACTERIAL/ANTIFUNGAL AGENTS, ALGICIDES AND ANTI-BIOLOGICAL ADHESION AGENTS CONTAINING BENZYLAMINES” (Nissan Chemical Industries, Ltd., priority 1998, dated 1999).
≈ marks a conversion by molar mass, not a printed value. Like-named read-outs stand apart in the source and are kept apart here.

What was measured:
Type in all cases: cell-based
Chaetomium globosum = assay: Agar dilution MIC (Example 3); conditions: 168 h, agar plate, 27 °C, 7 days
Procedure: (§1) Series of diluted samples (20000, 10000, 5000, 2500, 1250, 625, 313, 156, 78, 39 mg/l) of the compounds of the invention were prepared using dimethylsulfoxide. A sensitive culture medium-N (Nissui Seiyaku Co.) was used for bacteria and a potato dextrose agar culture medium (Nissui Seiyaku Co.) was used for fungi. 0.5 ml of each sample was added to and mixed with 9.5 ml of the culture medium, poured into a Petri dish and solidified to obtain a plate. As a result, the concentration of the compounds of the invention in the agar culture medium were 1000, 500, 250, 125, 62.5, 31.3, 15.6, 7.8, 3.9, 2.0 mg/l. The bacterium inoculated were cultured in a bouillon for the assay of sensitivity (Nissui Seiyaku Co.) at 37 °C for 20 hours, and the fungi were cultured in the potato dextrose agar culture medium (Nissui Seiyaku Co.) for 10 days and then a 10^6 CFU/ml suspension was prepared from each of them. A test bacteria or fungi suspension was streaked on an agar plate containing the compound of the present invention with platinum wire loop, and the agar plate was cultured at 37±1 °C for 18 to 20 hours for bacteria or at 27 °C for 7 days for fungi. A concentration at which no growth was seen was taken as minimum inhibitory concentration (MIC). Symbols in the tables mean the followings; • A: Bacillus subtilis, • B: Trichophyton mentagrophytes, • C: Staphylococcus aureus, • D: Aspergillus niger, • E: Penicillium funiculosum, • F: Candida albicans, • G: Micrococcus luteus, • H: Corynebacterium aquaticum, • I: Chaetomium globosum, • J: Fusarium moniliforme, • K: Saccharomyces cerevisiae, • L: Rhodotorula rubra, • M: Cladosporium cladosporioides, • N: Alternaria alternata.

Saccharomyces cerevisiae = assay: Agar dilution MIC (Example 3); conditions: 168 h, agar plate, 27 °C, 7 days
Procedure: as §1

[1] = tested on: Cladosporium cladosporioides; assay: Agar dilution MIC (Example 3); conditions: 168 h, agar plate, 27 °C, 7 days
Procedure: as §1

Rhodotorula rubra = assay: Agar dilution MIC (Example 3); conditions: 168 h, agar plate, 27 °C, 7 days
Procedure: as §1

[2] = tested on: Trichophyton mentagrophytes; assay: Agar dilution MIC (Example 3); conditions: 168 h, agar plate, 27 °C, 7 days
Procedure: as §1

[3] = tested on: Corynebacterium aquaticum; assay: Agar dilution MIC (Example 3); conditions: Leifsonia aquatica, agar plate, 37±1 °C, 18 to 20 hours
Procedure: as §1

Penicillium funiculosum = assay: Agar dilution MIC (Example 3); conditions: Talaromyces funiculosus, 168 h, agar plate, 27 °C, 7 days
Procedure: as §1

Aspergillus niger = assay: Agar dilution MIC (Example 3); conditions: 168 h, agar plate, 27 °C, 7 days
Procedure: as §1

Fusarium moniliforme = assay: Agar dilution MIC (Example 3); conditions: Fusarium verticillioides, 168 h, agar plate, 27 °C, 7 days
Procedure: as §1

[4] = tested on: freshwater green alga (Selenastrum capricornutum); assay: Inhibition of propagation of freshwater green alga (Example 4); conditions: after 72 hours, cell number vs non-treated lot; for inhibition at 0.05 ppm: 50ppb, read-out: Propagation inhibiting rate(%) 50ppb; for inhibition at 0.5 ppm: 500ppb, read-out: Propagation inhibiting rate(%) 500ppb
Procedure: A predetermined amount of each of the compounds of the invention was dissolved in a culture medium containing 10^5 /ml of a freshwater green alga (Selenastrum capricornutum) at a logarithmic growth phase to prepare samples having a concentration of the compound of the invention in the medium of 500 ppb and 50ppb respectively. The samples were stationary cultured at 23±1 °C for […] under continuous illumination.
After 72 hours, the number of cells was measured using a hemacytometer to obtain propagation rate. The propagation inhibiting rate was calculated from comparison with the non-treated lot.

[5] = tested on: freshwater green alga (Scenedesmus pannonicus); assay: Inhibition of propagation of freshwater algae (Example 6); conditions: Desmodesmus pannonicus, 500ppb
Procedure: (§2) A predetermined amount each of the compounds of the invention was dissolved in a culture medium containing 10^5 /ml of a freshwater alga at a logarithmic growth phase to prepare samples having a concentration of the compound of the invention in the medium of 500 ppb and 50 ppb respectively. A shaking culture at 100 rpm was performed for […] under continuous illumination at 20±2 °C for freshwater diatom and at 23±2 °C for other algae.
(§3) After 72 hours and 168 hours, the […] of cells was measured using a hemacytometer to obtain propagation rate. The propagation inhibiting rate was calculated from comparison with the non-treated lot. Symbols in the tables mean the followings; • A: freshwater green alga (Chlorella pyrenoidosa), • B: freshwater blue-green alga (Microcystis aeruginosa), • C: freshwater diatom (Diatoma elongatum), • D: freshwater green alga (Scenedesmus pannonicus).

[6] = tested on: Trichophyton mentagrophytes; conditions: 72 h, 100 ppm
Procedure: 31.3 ml of Trichophyton mentagrophytes to be tested was added to 125 ml of a potato dextrose agar culture medium (Nissui Seiyaku Co.). The medium was stirred not to foam the solutions, poured into plates uniformly and solidified.
Thereafter, predetermined amounts of the compounds of the invention were weighted and diluted with acetone to predetermined concentrations.
Paper disks were impregnated with samples containing predetermined amounts of the compounds of the invention, laid on a filter, dried with air and placed on a plate containing test microbe at equal intervals.
Trichophyton mentagrophytes was cultured at 28 °C for 3 days in a thermostatic chamber and the diameter of each inhibiting zone was measured to evaluate the activity of each compound. Symbols in the table mean the followings; • A: Trichophyton mentagrophytes, • ++: strongly inhibiting zone (equal to or more than 21 mm) is observed, • +: inhibiting zone (10 to 20 mm) is observed, • -: no inhibiting zone is observed.

Alternaria alternata = assay: Agar dilution MIC (Example 3); conditions: 168 h, agar plate, 27 °C, 7 days
Procedure: as §1

[7] = tested on: freshwater blue-green alga (Microcystis aeruginosa); assay: Inhibition of propagation of freshwater algae (Example 6); conditions: 500ppb
Procedure: as §2, §3

[8] = tested on: freshwater green alga (Chlorella pyrenoidosa); assay: as above; conditions: Auxenochlorella pyrenoidosa, 500ppb
Procedure: as §2, §3

[9] = tested on: Trichophyton mentagrophytes; assay: Agar dilution MIC (Example 2); conditions: 168 h, agar plate, 27 °C, 7 days
Procedure: Series of diluted samples (20000, 10000, 5000, 2500, 2000, 1250, 625, 313, 156, 78, 39, 20, 10, 5, 2.5, 1.25 mg/l) of the compounds of the invention were prepared using dimethylsulfoxide. A sensitive culture medium-N (Nissui Seiyaku Co.) was used for bacteria and a potato dextrose agar culture medium (Nissui Seiyaku Co.) was used for fungi. 0.5 ml of each sample was added to and mixed with 9.5 ml of the culture medium, poured into a Petri dish and solidified to obtain a plate. As a result, the concentration of the compounds of the invention in the agar culture medium were 1000, 500, 250, 125, 100, 62.5, 31.3, 15.6, 7.8, 3.9, 2.0, 1.0, 0.5, 0.25, 0.125, 0.062 mg/l. The bacterium inoculated were cultured in a bouillon for the assay of sensitivity (Nissui Seiyaku Co.) at 37 °C for 20 hours, and the fungi were cultured in the potato dextrose agar culture medium (Nissui Seiyaku Co.) for 10 days and then a 10^6 CFU/ml suspension was prepared from each of them. A test bacteria or fungi suspension was streaked on an agar plate containing the compound of the present invention with platinum wire loop, and the agar plate was cultured at 37±1 °C for 18 to 20 hours for bacteria or at 27 °C for 7 days for fungi. A concentration at which no growth was seen was taken as minimum inhibitory concentration [MIC(mg/l)]. Symbols in the table mean the followings; • A: Bacillus subtilis, • B: Trichophyton mentagrophytes, • C: Rhodotorula mucilaginosa.

[10] = tested on: freshwater diatom (Diatoma elongatum); assay: Inhibition of propagation of freshwater algae (Example 6); conditions: Diatoma tenuis; for inhibition at 0.05 ppm: 50ppb; for inhibition at 0.5 ppm: 500ppb
Procedure: as §2, §3

[11] = 72hr, read-out: Propagation inhibiting rate (%) 500ppb 72hr
[12] = 168hr, read-out: Propagation inhibiting rate (%) 500ppb 168hr
[13] = 72hr, read-out: Propagation inhibiting rate(%) 500ppb 72hr
[14] = 168hr, read-out: Propagation inhibiting rate(%) 500ppb 168hr

| Structure (SMILES) | MIC (Chaetomium globosum) | MIC (Saccharomyces cerevisiae) | MIC [1] | MIC (Rhodotorula rubra) | MIC [3] | MIC (Penicillium funiculosum) | MIC (Aspergillus niger) | MIC (Fusarium moniliforme) | inhibition at 0.05 ppm [4] | inhibition at 0.5 ppm [4] | inhibition at 0.5 ppm [5, 11] | inhibition at 0.5 ppm [5, 12] | Judgment (Target bacteria: A) [6] | inhibition at 0.5 ppm [7, 13] | inhibition at 0.5 ppm [7, 14] | inhibition at 0.5 ppm [8, 14] | MIC [9] | also measured |
| --- | --- | --- | --- | --- | --- | --- | --- | --- | --- | --- | --- | --- | --- | --- | --- | --- | --- | --- |
| Cc1cc(C)cc(CN(C)Cc2ccc(C(C)(C)C)cc2)c1 [Compound 2] | 31.3 µg/mL (≈ 106 µM) | 63 µg/mL (≈ 213 µM) | 125 µg/mL (≈ 423 µM) | 125 µg/mL (≈ 423 µM) | 31.3 µg/mL (≈ 106 µM) | 31.3 µg/mL (≈ 106 µM) | 125 µg/mL (≈ 423 µM) | 63 µg/mL (≈ 213 µM) | 84% | 96% | 91% | 99% | ++ (strongly inhibiting zone (equal to or more than 21 mm) is observed) | – | – | – | – | MIC [2]: < 2 µg/mL |
| Cc1cccc(C)c1CN(C)Cc1ccc(C(C)(C)C)cc1 [Compound 5] | 15.6 µg/mL (≈ 52.8 µM) | 63 µg/mL (≈ 213 µM) | 31.3 µg/mL (≈ 106 µM) | 63 µg/mL (≈ 213 µM) | 7.8 µg/mL (≈ 26.4 µM) | 15.6 µg/mL (≈ 52.8 µM) | < 2 µg/mL | 7.8 µg/mL (≈ 26.4 µM) | – | 75% | 76% | 78% | ++ (strongly inhibiting zone (equal to or more than 21 mm) is observed) | 56% | 62% | 62% | – | MIC (Alternaria alternata): 125 µg/mL (≈ 423 µM) |
| CN(Cc1ccc(C(C)(C)C)cc1)C1CCCc2ccccc21 (stereo not shown) [Compound 6] | – | 31.3 µg/mL (≈ 102 µM) | 125 µg/mL (≈ 407 µM) | – | 15.6 µg/mL (≈ 50.7 µM) | – | – | – | – | 70% | – | – | ++ (strongly inhibiting zone (equal to or more than 21 mm) is observed) | – | – | 79% | < 0.062 µg/mL | – |
| Cc1ccc(C)c(CN(C)Cc2ccc(C(C)(C)C)cc2)c1 [Compound 8] | 63 µg/mL (≈ 213 µM) | 125 µg/mL (≈ 423 µM) | 63 µg/mL (≈ 213 µM) | 125 µg/mL (≈ 423 µM) | 31.3 µg/mL (≈ 106 µM) | 31.3 µg/mL (≈ 106 µM) | 7.8 µg/mL (≈ 26.4 µM) | – | – | 90% | 72% | 86% | ++ (strongly inhibiting zone (equal to or more than 21 mm) is observed) | – | – | 86% | – | – |
| CC(c1ccccc1Cl)N(C)Cc1ccc(C(C)(C)C)cc1 (stereo not shown) [Compound 9] | – | – | – | – | – | – | – | – | 59% | 94% | – | 85% | ++ (strongly inhibiting zone (equal to or more than 21 mm) is observed) | 97% | 98% | – | 0.5 µg/mL (≈ 1.58 µM) | inhibition at 0.5 ppm [8, 13]: 70%; inhibition at 0.05 ppm ([10]; 72hr, read-out: Propagation inhibiting rate(%) 50ppb 72hr): 88%; inhibition at 0.05 ppm ([10]; 168hr, read-out: Propagation inhibiting rate(%) 50ppb 168hr): 94%; inhibition at 0.5 ppm [10, 13]: 76%; inhibition at 0.5 ppm [10, 14]: 100% |
